# Laboratory results: PubChem BioAssay (NCI)
#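 96-well plates; 48 h exposure; 5 concentrations. Endpoints by linear interpolation between flanking doses. Not reached: highest tested concentration assigned. GI50 is the concentration that inhibits growth by half. TGI marks complete inhibition of growth.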
# Assays:
# Assay in all cases: NCI anticancer screen, dose series, 48 h
# NCI-H23 lung = tested on: NCI-H23 lung
# NCI-H460 lung = tested on: NCI-H460 lung
# NCI-H522 lung = tested on: NCI-H522 lung
# NCI/ADR-RES ovarian = tested on: NCI/ADR-RES ovarian
# OVCAR-3 ovarian = tested on: OVCAR-3 ovarian
# OVCAR-4 ovarian = tested on: OVCAR-4 ovarian
# OVCAR-5 ovarian = tested on: OVCAR-5 ovarian
# OVCAR-8 ovarian = tested on: OVCAR-8 ovarian
# PC-3 prostate = tested on: PC-3 prostate
# RPMI-8226 leukemia = tested on: RPMI-8226 leukemia
# RXF 393 renal = tested on: RXF 393 renal
# SF-268 CNS = tested on: SF-268 CNS
# SF-295 CNS = tested on: SF-295 CNS
# SF-539 CNS = tested on: SF-539 CNS
# SK-MEL-2 melanoma = tested on: SK-MEL-2 melanoma
# SK-MEL-28 melanoma = tested on: SK-MEL-28 melanoma
# SK-MEL-5 melanoma = tested on: SK-MEL-5 melanoma
# SK-OV-3 ovarian = tested on: SK-OV-3 ovarian
# SN12C renal = tested on: SN12C renal
# SNB-19 CNS = tested on: SNB-19 CNS
# SNB-75 CNS = tested on: SNB-75 CNS
# SR leukemia = tested on: SR leukemia
# SW-620 colon = tested on: SW-620 colon
# T-47D breast = tested on: T-47D breast
# TK-10 renal = tested on: TK-10 renal
# U251 CNS = tested on: U251 CNS
# UACC-257 melanoma = tested on: UACC-257 melanoma
# UACC-62 melanoma = tested on: UACC-62 melanoma
# UO-31 renal = tested on: UO-31 renal
smiles,measurement,setting,value
O=C1OCC2=C1C(c1ccc(Cl)c(Cl)c1)c1cc3c(cc1N2CCO)CCC3 (configuration not stated),TGI,NCI-H23 lung,12200 nM
same,GI50,NCI-H460 lung,186 nM
same,TGI,NCI-H460 lung,6030 nM
same,GI50,NCI-H522 lung,110 nM
same,TGI,NCI-H522 lung,371 nM
same,GI50,NCI/ADR-RES ovarian,123 nM
same,TGI,NCI/ADR-RES ovarian,2300 nM
same,GI50,OVCAR-3 ovarian,145 nM
same,TGI,OVCAR-3 ovarian,509 nM
same,GI50,OVCAR-4 ovarian,326 nM
same,TGI,OVCAR-4 ovarian,21400 nM
same,GI50,OVCAR-5 ovarian,336 nM
same,TGI,OVCAR-5 ovarian,15300 nM
same,GI50,OVCAR-8 ovarian,221 nM
same,TGI,OVCAR-8 ovarian,8270 nM
same,GI50,PC-3 prostate,163 nM
same,TGI,PC-3 prostate,8760 nM
same,GI50,RPMI-8226 leukemia,237 nM
same,TGI,RPMI-8226 leukemia,15100 nM
same,GI50,RXF 393 renal,141 nM
same,TGI,RXF 393 renal,1460 nM
same,GI50,SF-268 CNS,343 nM
same,TGI,SF-268 CNS,9340 nM
same,GI50,SF-295 CNS,108 nM
same,TGI,SF-295 CNS,1500 nM
same,GI50,SF-539 CNS,147 nM
same,TGI,SF-539 CNS,3320 nM
same,GI50,SK-MEL-2 melanoma,192 nM
same,TGI,SK-MEL-2 melanoma,6890 nM
same,GI50,SK-MEL-28 melanoma,323 nM
same,TGI,SK-MEL-28 melanoma,11700 nM
same,GI50,SK-MEL-5 melanoma,181 nM
same,TGI,SK-MEL-5 melanoma,7220 nM
same,GI50,SK-OV-3 ovarian,211 nM
same,TGI,SK-OV-3 ovarian,6000 nM
same,GI50,SN12C renal,398 nM
same,TGI,SN12C renal,8910 nM
same,GI50,SNB-19 CNS,324 nM
same,TGI,SNB-19 CNS,15200 nM
same,GI50,SNB-75 CNS,134 nM
same,TGI,SNB-75 CNS,11700 nM
same,GI50,SR leukemia,348 nM
same,TGI,SR leukemia,16200 nM
same,GI50,SW-620 colon,166 nM
same,TGI,SW-620 colon,10700 nM
same,GI50,T-47D breast,250 nM
same,TGI,T-47D breast,20600 nM
same,GI50,TK-10 renal,312 nM
same,TGI,TK-10 renal,13200 nM
same,GI50,U251 CNS,181 nM
same,TGI,U251 CNS,6290 nM
same,GI50,UACC-257 melanoma,151 nM
same,TGI,UACC-257 melanoma,15700 nM
same,GI50,UACC-62 melanoma,215 nM
same,TGI,UACC-62 melanoma,8600 nM
same,GI50,UO-31 renal,237 nM
same,TGI,UO-31 renal,21200 nM
